Laboratory results published in the CheMixHub ionic liquid set.

Experiment: xn = mol fraction of the nth substance listed

O + CCCCCCCCCCCCCCCC[n+]1ccccc1.O=C([O-])C(O)c1ccccc1 + CC(C)C[C@H](N)C(=O)O
101 kPa, x2 = 0, x3 = 0
Conditions	electrical conductivity [S/m]
293.15 K	0.00012
298.15 K	0.00015
303.15 K	0.00016
308.15 K	0.00017
313.15 K	0.00019

CCC[N+]1(C)CCCC1.O=S(=O)([N-]S(=O)(=O)C(F)(F)F)C(F)(F)F + CCCCCC[N+]1(C)CCCC1.O=S(=O)([N-]S(=O)(=O)C(F)(F)F)C(F)(F)F
353.15 K, 101 kPa, x2 = 0
Conditions	electrical conductivity [S/m]	viscosity [mPa·s]
–	1.76	11.6

CC(=O)[O-].CCCC[n+]1ccn(C)c1 + O
Conditions	viscosity [mPa·s]
293.15 K, 100 kPa, x2 = 0.1843	559
293.15 K, 100 kPa, x2 = 0.3889	298
293.15 K, 100 kPa, x2 = 0.5951	124.3
293.15 K, 100 kPa, x2 = 0.8004	32.1
298.15 K, 100 kPa, x2 = 0	595
298.15 K, 101 kPa, x1 = 0.03479	2.23
298.15 K, 101 kPa, x1 = 0.03897	2.35
298.15 K, 101 kPa, x1 = 0.04311	2.66
303.15 K, 100 kPa, x2 = 0	400
303.15 K, 100 kPa, x2 = 0.1843	262
303.15 K, 100 kPa, x2 = 0.3889	150
303.15 K, 100 kPa, x2 = 0.5951	68.8
303.15 K, 100 kPa, x2 = 0.8004	19.69
303.15 K, 101 kPa, x1 = 0.03479	2.18
303.15 K, 101 kPa, x1 = 0.03897	2.29
303.15 K, 101 kPa, x1 = 0.04311	2.63
308.15 K, 101 kPa, x1 = 0.03479	2.16
308.15 K, 101 kPa, x1 = 0.03897	2.25
308.15 K, 101 kPa, x1 = 0.04311	2.56
313.15 K, 100 kPa, x2 = 0	200
313.15 K, 100 kPa, x2 = 0.0171	138.1
313.15 K, 100 kPa, x2 = 0.1843	138.2
313.15 K, 100 kPa, x2 = 0.3889	85
313.15 K, 100 kPa, x2 = 0.5951	41.9
313.15 K, 100 kPa, x2 = 0.8004	13.12
313.15 K, 101 kPa, x1 = 0.03479	2.13
313.15 K, 101 kPa, x1 = 0.03897	2.22
313.15 K, 101 kPa, x1 = 0.04311	2.49
318.15 K, 101 kPa, x1 = 0.03479	1.74
318.15 K, 101 kPa, x1 = 0.03897	2.11
318.15 K, 101 kPa, x1 = 0.04311	2.29
323.15 K, 100 kPa, x2 = 0	111.7
323.15 K, 100 kPa, x2 = 0.1843	79.7
323.15 K, 100 kPa, x2 = 0.3889	51.8
323.15 K, 100 kPa, x2 = 0.5951	26.97
323.15 K, 100 kPa, x2 = 0.8004	9.09
323.15 K, 101 kPa, x1 = 0.03479	1.58
323.15 K, 101 kPa, x1 = 0.03897	2.07
323.15 K, 101 kPa, x1 = 0.04311	2.26
328.15 K, 101 kPa, x1 = 0.03479	1.51
328.15 K, 101 kPa, x1 = 0.03897	1.91
328.15 K, 101 kPa, x1 = 0.04311	2.02
333.15 K, 100 kPa, x2 = 0	67.3
333.15 K, 100 kPa, x2 = 0.01197	48.8
333.15 K, 100 kPa, x2 = 0.1843	48.6
333.15 K, 100 kPa, x2 = 0.3889	33.6
333.15 K, 100 kPa, x2 = 0.5951	18.26
333.15 K, 101 kPa, x1 = 0.03479	1.24
333.15 K, 101 kPa, x1 = 0.03897	1.86
333.15 K, 101 kPa, x1 = 0.04311	1.97
343.15 K, 100 kPa, x2 = 0	41.6
343.15 K, 100 kPa, x2 = 0.1843	32.4
343.15 K, 100 kPa, x2 = 0.3889	23.31
343.15 K, 100 kPa, x2 = 0.5951	13
353.15 K, 100 kPa, x2 = 0	27.86
353.15 K, 100 kPa, x2 = 0.1843	22.25
353.15 K, 100 kPa, x2 = 0.3889	16.58
353.15 K, 100 kPa, x2 = 0.5951	9.64
363.15 K, 100 kPa, x2 = 0	19.87
363.15 K, 100 kPa, x2 = 0.1843	15.93
363.15 K, 100 kPa, x2 = 0.5951	7.37
373.15 K, 100 kPa, x2 = 0	14.82
373.15 K, 100 kPa, x2 = 0.1843	11.94

CC[n+]1ccn(C)c1.N#C[N-]C#N + CC[n+]1ccn(C)c1.F[B-](F)(F)F
298.1 K, 101 kPa
Conditions	viscosity [mPa·s]
x2 = 0.0448	17.2
x2 = 0.6254	27.9
x2 = 0.7856	31.4
x2 = 0.9447	34.7

CC1COC(=O)O1 (stereo not given) + CCCC[N+]1(C)CCCC1.O=S(=O)([N-]S(=O)(=O)C(F)(F)F)C(F)(F)F
101 kPa, x1 = 1
Conditions	electrical conductivity [S/m]	viscosity [mPa·s]
293.15 K	0.002	2.72
303.15 K	0.002	2.29
313.15 K	0.002	2

CCCCCCCCCC[n+]1ccn(C)c1.F[B-](F)(F)F + CCCCCCCCn1cc[n+](C)c1.[Br-] + O
298.15 K, 101 kPa
Conditions	electrical conductivity [S/m]
x2 = 0.0007563, x1 = 0.0001261	0.4
x2 = 0.001655, x1 = 0.0002882	0.71
x2 = 0.00196, x1 = 0.0003423	0.81
x2 = 0.002283, x1 = 0.0003963	0.87
x2 = 0.002552, x1 = 0.0004503	0.94
x2 = 0.002857, x1 = 0.0005043	0.99
x2 = 0.003126, x1 = 0.0005583	1.04
x2 = 0.003341, x1 = 0.0005943	1.09
x2 = 0.003645, x1 = 0.0006483	1.14
x2 = 0.003877, x1 = 0.0006843	1.18
x2 = 0.004253, x1 = 0.0007563	1.23
x2 = 0.004574, x1 = 0.0008102	1.28
x2 = 0.004788, x1 = 0.0008462	1.31
x2 = 0.005092, x1 = 0.0009002	1.35
x2 = 0.005359, x1 = 0.0009541	1.4
x2 = 0.005626, x1 = 0.001008	1.43

O + CCCO + CCCCCCCCCCCCOS(=O)(=O)[O-].[Na+]
Conditions	electrical conductivity [S/m]
298 K, 100 kPa, frequency 0.001 MHz, x2 = 0, x1 = 1	0.0005

CCCC[n+]1ccn(C)c1.F[B-](F)(F)F + CCCCCC[n+]1ccn(C)c1.F[B-](F)(F)F
Conditions	viscosity [mPa·s]
305.15 K, 101 kPa, x1 = 1	75.1

O + CCOS(=O)(=O)[O-].CC[n+]1ccn(C)c1
Conditions	electrical conductivity [S/m]
298.15 K, 101.3 kPa, x1 = 1	0.00264

[Br][Al]([Br])[Br] + CC[n+]1ccn(C)c1.[Br-]
Conditions	electrical conductivity [S/m]
298.15 K, 101.3 kPa, x1 = 0.35	0.625
